Experiment: xn = mol fraction of the nth substance listed

CCN(CC)CC + CCCCN
viscosity [mPa·s], 101.33 kPa
Conditions | x1 = 0.1038 | x1 = 0.2009 | x1 = 0.4065 | x1 = 0.5021 | x1 = 0.5996 | x1 = 0.801 | x1 = 0.8898
303.15 K | 0.4186 | 0.4019 | 0.3761 | 0.3681 | 0.3611 | 0.357 | 0.3569
313.15 K | 0.3692 | 0.3555 | 0.3345 | 0.329 | 0.3244 | 0.3216 | 0.3228

CCC(C)(O)CC + CCO
298.15 K, 101.33 kPa
Conditions | viscosity [mPa·s]
x2 = 0.1124 | 3.619
x2 = 0.2131 | 3.405
x2 = 0.299 | 3.345
x2 = 0.4102 | 3.232
x2 = 0.5116 | 3.007
x2 = 0.6138 | 2.632
x2 = 0.7104 | 2.203
x2 = 0.7975 | 1.837
x2 = 0.901 | 1.405

ClC(Cl)(Cl)Cl + CCCCCCCO
viscosity [mPa·s], 101 kPa
Conditions | 298.15 K | 308.15 K | 318.15 K
x2 = 0.0559 | 0.969 | 0.832 | 0.725
x2 = 0.07 | 0.982 | – | –
x2 = 0.13 | 1.102 | – | –
x2 = 0.147 | 1.151 | 1.004 | 0.867
x2 = 0.19 | 1.237 | – | –
x2 = 0.25 | 1.402 | – | –
x2 = 0.2529 | 1.453 | 1.227 | 1.052
x2 = 0.3189 | – | 1.321 | 1.096
x2 = 0.3828 | 1.836 | 1.489 | 1.231
x2 = 0.47 | 2.175 | – | –
x2 = 0.57 | 2.716 | – | –
x2 = 0.6371 | 3.08 | 2.329 | 1.851
x2 = 0.67 | 3.302 | – | –
x2 = 0.7713 | 3.949 | 2.943 | 2.256
x2 = 0.816 | 4.238 | 3.167 | 2.422
x2 = 0.84 | 4.527 | – | –

CCN(CC)CC + c1ccccc1
303.15 K, 101 kPa
Conditions | viscosity [mPa·s]
x1 = 0.01024 | 0.5567
x1 = 0.02091 | 0.5513
x1 = 0.03113 | 0.545
x1 = 0.03955 | 0.5386
x1 = 0.05006 | 0.5341
x1 = 0.06182 | 0.5287
x1 = 0.07124 | 0.5215
x1 = 0.08041 | 0.5162
x1 = 0.09192 | 0.5096
x1 = 0.09995 | 0.5041

CCN(CC)CC + Cc1cc(C)cc(C)c1
viscosity [mPa·s], 101 kPa
Conditions | x2 = 0.1033 | x2 = 0.2154 | x2 = 0.2645 | x2 = 0.3959 | x2 = 0.5072 | x2 = 0.6007 | x2 = 0.7132 | x2 = 0.7989 | x2 = 0.8692
293.15 K | 0.386 | 0.41 | 0.422 | 0.453 | 0.484 | 0.517 | 0.56 | 0.593 | 0.628
303.15 K | 0.35 | 0.369 | 0.378 | 0.407 | 0.432 | 0.462 | 0.497 | 0.526 | 0.557
313.15 K | 0.315 | 0.334 | 0.342 | 0.368 | 0.391 | 0.416 | 0.449 | 0.473 | 0.5
323.15 K | 0.288 | 0.304 | 0.312 | 0.335 | 0.357 | 0.378 | 0.407 | 0.429 | 0.452
